Reference: publication PMC6941172 (Journal of medicinal chemistry, 2018)
Entries after “also recorded” stand apart in the source; their conditions may differ.

Assays:
Dopamine D5 = Dopamine D5 (Homo sapiens, UniProt P21918); assay: PDSP radioligand displacement, [3H]SCH233930; assay type: binding; conditions: [3H]SCH233930, PDSP primary assay
C57BL/6 mice = assay: Spontaneous locomotor activity assay in mice; assay type: in vivo, mouse; conditions: for Hyperlocomotor action: IP 3, 10 and 30 mg/kg
[1] = Microsomal stability assay, human liver microsomes; assay type: in vitro ADME; conditions: vs respective parent (8a, 8i, 8n or 8k)
[2] = Microsomal stability assay, mouse liver microsomes; assay type: in vitro ADME; conditions: vs respective parent (8a, 8i, 8n or 8k)
[3] = Pharmacokinetic study, IP 10 mg/kg, plasma and brain; assay type: in vivo, rat; conditions: rats
rats = assay: Rotarod pilot experiment in rats; assay type: in vivo, rat
adult male Wistar rats = assay: Spontaneous locomotor activity assay in rats; assay type: in vivo, rat
[4] = tested on: BZP rat brain site of GABAARs; assay: PDSP radioligand displacement, [3H]flunitrazepam; assay type: binding; conditions: [3H]flunitrazepam displacement
GABAAR α6β3γ2 subtype [5] = biological target: T1, GABAAR α6β3γ2 subtype (Rattus norvegicus, UniProt P18508+P30191+P63079); assay: Electrophysiological assay in Xenopus oocytes, modulation of GABA EC3 currents; assay type: cell-based
HEK293 (kidney) cells = assay: Cytotoxicity assay; assay type: cell-based, human; conditions: HEK293, up to 400 μM, 48 hours
HEPG2 (liver) cells = assay: Cytotoxicity assay; assay type: cell-based, human; conditions: HEPG2, up to 400 μM, 48 hours
GABAAR α6β3γ2 subtype [6] = biological target: T1, GABAAR α6β3γ2 subtype; conditions: at 10 μM; cited from earlier work
DOR = DOR (Homo sapiens, UniProt P41143); assay: PDSP radioligand displacement, [3H]DADLE; assay type: binding; conditions: PDSP primary assay
Solubility assay = assay type: physicochemical
Muscarinic M4 = biological target: T2, Muscarinic M4 (Homo sapiens, UniProt P08173); assay type: binding
T2 sequence (P08173 1-479): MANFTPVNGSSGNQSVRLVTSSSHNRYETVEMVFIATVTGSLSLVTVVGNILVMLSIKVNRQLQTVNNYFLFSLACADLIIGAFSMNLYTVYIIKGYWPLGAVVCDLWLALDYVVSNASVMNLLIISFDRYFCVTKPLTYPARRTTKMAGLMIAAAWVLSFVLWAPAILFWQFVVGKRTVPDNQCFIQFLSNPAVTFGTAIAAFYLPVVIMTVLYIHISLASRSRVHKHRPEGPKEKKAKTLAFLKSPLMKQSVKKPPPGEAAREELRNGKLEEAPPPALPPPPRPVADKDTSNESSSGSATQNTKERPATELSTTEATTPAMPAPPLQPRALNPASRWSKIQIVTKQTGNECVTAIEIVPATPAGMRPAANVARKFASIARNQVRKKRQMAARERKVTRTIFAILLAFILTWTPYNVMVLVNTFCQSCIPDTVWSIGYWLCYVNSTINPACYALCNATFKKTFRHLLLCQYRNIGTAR

α1-5β3γ2 receptors = assay: Electrophysiological assay in Xenopus oocytes, other receptor subtypes; assay type: cell-based; conditions: two-point experiments
[7] = tested on: Female Swiss Webster mice; conditions: 5 mg/kg positive control

T1 sequence (P30191 20-453): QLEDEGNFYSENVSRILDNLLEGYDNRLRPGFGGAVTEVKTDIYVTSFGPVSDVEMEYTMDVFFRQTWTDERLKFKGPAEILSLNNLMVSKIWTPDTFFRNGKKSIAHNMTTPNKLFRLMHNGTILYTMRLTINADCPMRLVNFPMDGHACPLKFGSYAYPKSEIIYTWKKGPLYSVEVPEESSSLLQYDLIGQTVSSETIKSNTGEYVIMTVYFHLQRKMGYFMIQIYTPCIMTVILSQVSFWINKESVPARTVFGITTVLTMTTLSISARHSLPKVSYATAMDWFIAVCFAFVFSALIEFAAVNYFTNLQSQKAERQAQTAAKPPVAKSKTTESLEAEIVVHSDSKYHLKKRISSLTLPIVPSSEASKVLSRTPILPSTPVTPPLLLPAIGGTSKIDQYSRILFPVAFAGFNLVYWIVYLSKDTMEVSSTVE
T1 sequence (P63079 26-473): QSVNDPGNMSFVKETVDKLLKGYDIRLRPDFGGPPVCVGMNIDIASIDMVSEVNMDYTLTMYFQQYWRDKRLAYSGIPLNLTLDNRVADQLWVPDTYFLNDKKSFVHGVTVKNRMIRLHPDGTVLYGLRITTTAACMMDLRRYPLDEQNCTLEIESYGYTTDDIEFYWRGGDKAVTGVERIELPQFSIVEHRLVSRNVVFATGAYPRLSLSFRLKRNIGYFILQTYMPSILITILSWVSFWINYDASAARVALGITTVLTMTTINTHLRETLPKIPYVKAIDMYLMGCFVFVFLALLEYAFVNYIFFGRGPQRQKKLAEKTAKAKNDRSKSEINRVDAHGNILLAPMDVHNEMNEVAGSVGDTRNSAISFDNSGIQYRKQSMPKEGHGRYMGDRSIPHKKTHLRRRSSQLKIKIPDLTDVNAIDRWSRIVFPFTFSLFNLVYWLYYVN
T1 sequence (P18508 39-466): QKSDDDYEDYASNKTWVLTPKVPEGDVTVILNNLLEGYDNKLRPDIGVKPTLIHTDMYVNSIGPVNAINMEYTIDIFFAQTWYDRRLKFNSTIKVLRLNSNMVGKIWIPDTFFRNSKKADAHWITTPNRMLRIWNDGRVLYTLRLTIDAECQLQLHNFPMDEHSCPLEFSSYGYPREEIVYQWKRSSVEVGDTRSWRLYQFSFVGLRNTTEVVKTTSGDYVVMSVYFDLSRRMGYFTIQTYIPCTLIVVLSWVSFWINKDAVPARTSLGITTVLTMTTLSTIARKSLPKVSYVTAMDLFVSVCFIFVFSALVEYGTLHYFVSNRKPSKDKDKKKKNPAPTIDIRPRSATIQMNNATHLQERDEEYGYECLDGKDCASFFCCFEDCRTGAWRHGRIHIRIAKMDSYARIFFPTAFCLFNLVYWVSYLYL
DOR, sequence (P41143 whole entry): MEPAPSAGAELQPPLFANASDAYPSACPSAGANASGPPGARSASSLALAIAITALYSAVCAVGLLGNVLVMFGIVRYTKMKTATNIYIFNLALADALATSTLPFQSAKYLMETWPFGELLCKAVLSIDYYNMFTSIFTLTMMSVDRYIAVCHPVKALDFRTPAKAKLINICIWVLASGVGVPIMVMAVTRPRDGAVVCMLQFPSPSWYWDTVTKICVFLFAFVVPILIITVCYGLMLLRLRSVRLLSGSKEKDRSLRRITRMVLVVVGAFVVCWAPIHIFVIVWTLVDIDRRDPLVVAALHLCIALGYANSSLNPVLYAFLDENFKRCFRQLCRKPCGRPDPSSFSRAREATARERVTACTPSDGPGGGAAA
Dopamine D5, sequence (P21918 whole entry): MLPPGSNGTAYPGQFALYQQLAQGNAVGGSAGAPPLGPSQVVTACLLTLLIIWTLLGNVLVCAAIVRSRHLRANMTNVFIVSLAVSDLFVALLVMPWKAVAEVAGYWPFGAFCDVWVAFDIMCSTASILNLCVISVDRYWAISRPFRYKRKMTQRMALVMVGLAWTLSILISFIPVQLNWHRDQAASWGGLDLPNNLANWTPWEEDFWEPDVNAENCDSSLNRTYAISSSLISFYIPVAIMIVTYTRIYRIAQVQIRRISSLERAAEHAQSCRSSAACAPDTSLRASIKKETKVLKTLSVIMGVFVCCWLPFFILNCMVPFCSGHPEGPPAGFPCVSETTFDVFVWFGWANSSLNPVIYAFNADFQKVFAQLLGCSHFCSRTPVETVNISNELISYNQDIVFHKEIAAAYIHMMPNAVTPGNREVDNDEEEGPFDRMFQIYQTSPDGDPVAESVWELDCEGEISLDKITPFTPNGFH

For `COc1ccc(-n2nc3c4ccc(OC)cc4[nH]cc-3c2=O)cc1` [Compound 8a, 7-Methoxy-2-(4-methoxyphenyl)-2,5-dihydro-3H-pyrazolo[4,3-c]quinolin-3-one], the “Activity at Dopamine D5” value (Dopamine D5) was “showed activity” and the Hyperlocomotor action (C57BL/6 mice) was “induced a hyperlocomotor action”.
With `[2H]C([2H])([2H])Oc1ccc(-n2nc3c4ccc(OC)cc4[nH]cc-3c2=O)cc1` [Compound 8b, 7-Methoxy-2-(4-methoxy-d3-phenyl)-2,5-dihydro-3H-pyrazolo[4,3-c]quinolin-3-one] the “Increase in half-life (HLM) relative to parent ligand” value [1] was 2.5 fold, the “Increase in half-life (MLM) relative to parent ligand” value [2] was “three-fold” and the “Brain concentration (Cmax) compared with parent 8a” value [3] was “almost two-fold increase”. The “Free (unbound) brain concentrations” value [3] was roughly 100 nM, the “Motor coordination and balance on the rotarod” value (rats; IP doses as high as 55 mg/kg) was “retained” and the Hyperlocomotor response (adult male Wistar rats; IP 10 mg/kg, first experiment (Figure 11A)) was “induced a hyperlocomotor response”. The Hyperlocomotor response (adult male Wistar rats; IP 10 mg/kg, repeated experiment (Figure 11C)) was “did not reach statistical significance”, the Hyperlocomotor response (adult male Wistar rats; IP 3 and 10 mg/kg, third experiment (Figure 11E)) was “present” and the “Hyperlocomotor effect in combination with diazepam” value (C57BL/6 mice; IP 10 mg/kg with diazepam 3 mg/kg IP) was “present”. For the same molecule, the Hyperlocomotor action (C57BL/6 mice) was “induced a hyperlocomotor action”.
For `[2H]C([2H])([2H])Oc1ccccc1-n1nc2c3ccc(OC)cc3[nH]cc-2c1=O` [Compound 8h, 7-Methoxy-2-(2-methoxy-d3-phenyl)-2,5-dihydro-3H-pyrazolo[4,3-c]quinolin-3-one], the “Binding to the BZP rat brain site (in words)” value (shortened to “Binding”) [4] was “significantly less binding; also recorded: significantly reduced affinity”.
In the case of `[2H]C([2H])([2H])Oc1cccc(-n2nc3c4cc(Cl)ccc4[nH]cc-3c2=O)c1` [Compound 8j, 8-Chloro-2-(3-methoxy-d3-phenyl)-2,5-dihydro-3H-pyrazolo[4,3-c]quinolin-3-one], the “Increase in half-life (HLM) relative to parent ligand” value [1] is reported as “three-fold”, the “Increase in half-life (MLM) relative to parent ligand” value [2] is reported as “two-fold” and the “Efficacy / activity at the α6β3γ2 subtype (in words)” value (shortened to “Efficacy / activity”) (GABAAR α6β3γ2 subtype [5]) is reported as “poorer efficacy”. For the same molecule, the “Cytotoxicity / cell viability” value (HEK293 (kidney) cells) was “no impact on cytotoxicity” and the “Cytotoxicity / cell viability” value (HEPG2 (liver) cells) was “no impact on cytotoxicity”.
For `COc1ccc(-n2nc3c4cc(Cl)ccc4[nH]cc-3c2=O)cc1` [Compound 8k, 8-Chloro-2-(4-methoxyphenyl)-2,5-dihydro-3H-pyrazolo[4,3-c]quinolin-3-one], the “α6β3γ2 efficacy relative to 8a and 8n” value (GABAAR α6β3γ2 subtype [6]) is listed as “three times higher”.
With `[2H]C([2H])([2H])Oc1ccc(-n2nc3c4cc(Cl)ccc4[nH]cc-3c2=O)cc1` [Compound 8l, 8-Chloro-2-(4-methoxy-d3-phenyl)-2,5-dihydro-3H-pyrazolo[4,3-c]quinolin-3-one] the “Interaction with DOR” value (DOR) was “weakly interacted”.
In the case of `[2H]C([2H])([2H])Oc1ccccc1-n1nc2c3cc(Cl)ccc3[nH]cc-2c1=O` [Compound 8m, 8-Chloro-2-(2-methoxy-d3-phenyl)-2,5-dihydro-3H-pyrazolo[4,3-c]quinolin-3-one], the “Efficacy / activity” value (GABAAR α6β3γ2 subtype [5]) is reported as “completely inactive; also recorded: no activity; also recorded: almost no efficacy”, the “Binding” value [4] is reported as “reasonable binding affinity” and the “Cytotoxicity / cell viability” value (HEK293 (kidney) cells) is reported as “no impact on cytotoxicity”. The “Cytotoxicity / cell viability” value (HEPG2 (liver) cells) was “no impact on cytotoxicity” and the “Motor coordination and balance on the rotarod” value (rats; IP doses as high as 60 mg/kg) was “retained”.
In the case of `[2H]C([2H])([2H])Oc1ccccc1-n1nc2c3ccc(Br)cc3[nH]cc-2c1=O` [Compound 8q, 7-Bromo-2-(2-methoxy-d3-phenyl)-2,5-dihydro-3H-pyrazolo[4,3-c]quinolin-3-one], the “Binding” value [4] is reported as “significantly less binding; also recorded: significantly reduced affinity”.
For `COc1ccc2c3nn(-c4ccc(OC)nc4)c(=O)c-3c[nH]c2c1` [Compound 13a, 7-Methoxy-2-(6-methoxypyridin-3-yl)-2,5-dihydro-3H-pyrazolo[4,3-c]quinolin-3-one], the “Increase in half-life (MLM) relative to parent ligand” value [2] was “slightly decreased half-life”, the “Increase in water solubility” value (Solubility assay; vs parent ligand 8a) was “about 3 fold” and the “Activity at Muscarinic M4” value (Muscarinic M4) was “showed activity”.
For `[2H]C([2H])([2H])Oc1ccc2c3nn(-c4ccc(OC)nc4)c(=O)c-3c[nH]c2c1` [Compound 13c, 7-Methoxy-d3-2-(6-methoxypyridin-3-yl)-2,5-dihydro-3H-pyrazolo[4,3-c]quinolin-3-one], the “Efficacy / activity” value (GABAAR α6β3γ2 subtype [5]) was “retained some efficacy”, the “Activity at α1-5β3γ2 receptors” value (α1-5β3γ2 receptors) was “lack of activity” and the “Cytotoxicity / cell viability” value (HEK293 (kidney) cells) was “no impact of cell viability”. For the same molecule, the “Cytotoxicity / cell viability” value (HEPG2 (liver) cells) was “no impact of cell viability”, the “Brain AUC0-12 as % of that obtained with 8b” value [3] was 45% and the “Brain AUC0-12 as % of that obtained with 8c” value [3] was 36%. The “Brain AUC0-12 as % of that obtained with 8d” value [3] was 55% and the “Brain concentration (Cmax) compared with parent 8a” value [3] was “considerably less”.
For `COc1ccc(-n2nc3c4cc(Cl)ccc4[nH]cc-3c2=O)cn1` [Compound 13e, 8-Chloro-2-(6-methoxypyridin-3-yl)-2,5-dihydro-3H-pyrazolo[4,3-c]quinolin-3-one], the “Increase in half-life (HLM) relative to parent ligand” value [1] was “nearly four-fold”, the “Increase in half-life (MLM) relative to parent ligand” value [2] was “two-fold” and the “Decrease in water solubility” value (Solubility assay; vs 8k, neutral and acidic aqueous media) was roughly 10 fold. The “Cytotoxicity / cell viability” value (HEK293 (kidney) cells) was “no impact of cell viability” and the “Cytotoxicity / cell viability” value (HEPG2 (liver) cells) was “no impact of cell viability”.
For `CN1C(=O)CN=C(c2ccccc2)c2cc(Cl)ccc21` [diazepam], the Rotarod motor impairment [7] was “greatest impairment of sensorimotor steadiness at 10 minutes”.
